Assay results taken from patent US20100324130A1, “DAA PERIPHERAL BENZODIAZEPINE RECEPTOR LIGAND FOR CANCER IMAGING AND TREATMENT” (priority 2006, published 2010).

Assays:
[1] = target: T1, PBR protein harvested from MA-10 cells (Mus musculus, UniProt P50637); assay: Competitive binding study against [3H]PK11195 on PBR protein; details: amino group capped by acetyl group; [3H]PK11195 radioligand; 4° C., 90 minutes
T1 construct: PBR protein was harvested from MA-10 cells and stocked in PBS at 10 mg/mL; endogenous in cells; host or cells: MA-10 cells
Procedure: More specifically, conjugable form of DAA1106, with 3-9 carbon spacers, has been synthesized, characterized, and used in a competitive binding assay. The amino group was capped by acetyl group to reduce non-specific binding (Scheme 2).
PBR protein was harvested from MA-10 cells and stocked in PBS at 10 mg/mL. The stock solution was diluted to 30 μg/100 μL for the binding study. [^3H]PK11195 was used as radioligand and the specific activity of the stock solution was 73.6 Ci/mmole (˜11.8 μM). A diluted solution of 15 nM in PBS was prepared before use. For each of the molecules tested (NIRDAA, LissDAA and C3-9DAA1106 amide), eight concentrations of solutions from 3×10^−4M to 3×10^−11M in PBS buffer were prepared. 30 test tubes were used for the study of each molecule. 3 of them were used for total binding (100 μL 15 nM [^3H]PK11195+100 μL PBS buffer+100 μL 30 μg/100 μL PBR protein), 3 test tubes were for non-specific binding (100 μL 15 nM [^3H]PK11195+100 μL 15 μM PK11195+100 μL 30 μg/100 μL PBR protein) and the other 24 were triplicates for each doses of competitor ligand (100 μL, 15 nM [^3H]PK11195+100 μL competitor solution+100 μL 30 μg/100 μL PBR protein). All test tubes were vortexed and then incubated at 4° C. for 90 minutes. Reactions were stopped by filtration on FG/B filters using the Brandel binding apparatus through Whatman GF/B filters (Brandel, Gaithersburg, Md.). The filters (24 positions each) were preincubated in PBS/H2O containing 0.05% PEI for 20-30 minutes before filtration. The filters were then washed 5 times with PBS, put in scintillation vials, vortexed in scintillation fluid and counted. The […] and Ki (equilibrium dissociation constant) values were calculated using the PRISM program package

PBR [2] = details: cited from earlier work
PBR [3] = details: cited from earlier work; for IC50: comparison values for parent ligand
[4] = system: human Jurkat T lymphocyte cells (low PBR expressing); assay: Apoptosis study, CellTiter-Glo luminescent cell viability assay; assay type: cell-based
Procedure: (§1) Apoptosis Study Using Etoposide and EtoposideDAA 50,000 MDA-MB-231 human breast tumor (high PBR expressing) or human Jurkat T lymphocyte cells (low PBR expressing) cells/well were added to 96 well plates and incubated under standard tissue culture conditions (37° C., 5% CO2) for 24 hours. […] After three days, CellTiter-Glo luminescent cell viability assay (Promega) was added. The plates were incubated for an additional one hour and the […] was counted under Xenogen IVIS imaging system. Three wells were used for control which had cells treated with viability assay without drug. Blank […] not have cells or drug, but had viability assay. Medium samples had cells only, without drug or viability assay.

[5] = system: MDA-MB-231 human breast tumor (high PBR expressing) cells; assay: as above; assay type: cell-based; details: MDA-MB-231, three days
Procedure: as §1

SMILES | IC50 [1] [µM] | Ki [1] [µM] | other results
COc1ccc(NCCCNC(C)=O)c(CN(C(C)=O)c2cc(F)ccc2Oc2ccccc2)c1 [C3DAA1106] | 0.39 | 0.068 ± 0.023 | –
COc1ccc(NCCCCNC(C)=O)c(CN(C(C)=O)c2cc(F)ccc2Oc2ccccc2)c1 [C4DAA1106] | 0.8 | 0.141 ± 0.036 | –
COc1ccc(NCCCCCNC(C)=O)c(CN(C(C)=O)c2cc(F)ccc2Oc2ccccc2)c1 [C5DAA1106] | 0.84 | 0.149 ± 0.049 | –
COc1ccc(NCCCCCCNC(C)=O)c(CN(C(C)=O)c2cc(F)ccc2Oc2ccccc2)c1 [C6DAA1106] | 0.35 ± 0.22 | 0.052 ± 0.03 | –
COc1ccc(NCCCCCCCNC(C)=O)c(CN(C(C)=O)c2cc(F)ccc2Oc2ccccc2)c1 [C7DAA1106] | 0.4 | 0.071 ± 0.033 | –
COc1ccc(NCCCCCCCCNC(C)=O)c(CN(C(C)=O)c2cc(F)ccc2Oc2ccccc2)c1 [C8DAA1106] | 0.24 | 0.043 ± 0.019 | –
COc1ccc(NCCCCCCCCCNC(C)=O)c(CN(C(C)=O)c2cc(F)ccc2Oc2ccccc2)c1 [C9DAA1106] | 0.29 | 0.051 ± 0.017 | –
COc1ccc(OC)c(CN(C(C)=O)c2cc(F)ccc2Oc2ccccc2)c1 [DAA1106] | – | – | concentration to displace PBR complexed PK11195 and Ro5-4864 (PBR [2]): 10^−15-10^−12 M; IC50 (PBR [3]): 0.00028 µM; binding affinity for PBR (PBR [3]; fentomolar): 10^−15 M
COc1ccc(OC)c(CN(C(C)=O)c2cc(F)ccc2Oc2ccccc2)c1 [[^11C]DAA1106] | – | – | IC50 (PBR [3]): 0.00091 µM
COc1cc([C@@H]2c3cc4c(cc3[C@@H](O[C@@H]3O[C@@H]5CO[C@@H](C)O[C@H]5[C@H](O)[C@H]3O)[C@H]3COC(=O)[C@H]23)OCO4)cc(OC)c1O [etoposide, reference compound] | – | – | concentration at which cells began to respond ([4]; Jurkat, three days): 10^−6 M; concentration at which cells effectively respond ([4]; Jurkat, three days): 10^−5 M; concentration at which cells were beginning to respond [5]: 10^−4 M
COc1ccc(NCCCCCCNC(=O)CCOc2c(OC)cc([C@@H]3c4cc5c(cc4[C@@H](OC4OC6COC(C)OC6C(O)C4O)[C@H]4COC(=O)[C@H]34)OCO5)cc2OC)c(CN(C(C)=O)c2cc(F)ccc2Oc2ccccc2)c1 (stereo partly drawn) [etoposide-C6DAA1106] | – | – | toxicity to normal cells compared with etoposide ([4]; Jurkat (low PBR expressing)): less toxicity to normal cells than etoposide; concentration at which cells effectively respond ([4]; Jurkat, three days): 10^−4 M; concentration at which cells were beginning to respond [5]: 10^−4 M
